US4927565A, “5-substituted amino-4-hydroxy-pentenoic acid derivatives and their use” (Banyu Pharmaceutical Co., Ltd., priority 1986, dated 1990)

Biological target: T1, Human plasma renin (Homo sapiens, UniProt P00797)
T1 construct: from tissue; host or cells: human plasma
T1 sequence (P00797 67-406): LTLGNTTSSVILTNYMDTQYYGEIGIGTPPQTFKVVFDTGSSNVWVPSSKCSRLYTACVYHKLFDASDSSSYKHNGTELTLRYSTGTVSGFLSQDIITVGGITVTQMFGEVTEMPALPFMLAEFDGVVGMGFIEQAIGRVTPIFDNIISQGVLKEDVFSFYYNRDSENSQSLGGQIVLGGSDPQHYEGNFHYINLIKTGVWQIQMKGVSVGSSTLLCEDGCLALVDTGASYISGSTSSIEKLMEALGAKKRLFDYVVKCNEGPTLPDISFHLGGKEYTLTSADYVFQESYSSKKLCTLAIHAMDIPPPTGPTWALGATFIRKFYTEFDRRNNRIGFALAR
Experiment: Human plasma renin inhibiting activities (angiotensin I measured by radio immunoassay)
Format: biochemical
Conditions: pH7.4, 37° C., one hour, read-out: 50% inhibition concentration IC50
Procedure: To 156 μl of a 0.2M sodium phosphate buffer solution (pH7.4), 40 μl of a solution mixture of 43 mM 8-hydroxyquinoline and 100 mM disodium ethylenediamine tetraacetate, 4 μl of dimethyl sulfoxide or a dimethyl sulfoxide solution of an inhibitor and 200 μl of human plasma were added and reacted at 37° C. for one hour. Then, pepstatin was added thereto to terminate the reaction, and the amount of the resulting angiotension I was measured by radio immunoassay whereby the inhibiting activity was determined.

IC50 [µM] | SMILES
1.4 | CCCC[C@H](NC(=O)[C@H](Cc1cccc2ccccc12)NC(=O)OCc1ccccc1)C(=O)N[C@@H](CC(C)C)[C@@H](O)/C=C/C(=O)NCC(C)C [Compound A, (4S,5S)-5-(L-N-benzyloxycarbonylnaphthylalanyl-L-norleucyl)amino-4-hydroxy-7-methyl-2(E)-octenoic acid isobutylamide]
0.019 | CCCC[C@H](NC(=O)[C@H](Cc1cccc2ccccc12)NC(=O)OCc1ccccc1)C(=O)N[C@@H](CC(C)C)[C@@H](O)/C=C(\CC)C(=O)NCC(C)C [Compound B, (4S,5S)-5-(L-N-benzyloxycarbonylnaphthylalanyl-L-norleucyl)amino-4-hydroxy-2-ethyl-7-methyl-2(E)-octenoic acid isobutylamide]
0.067 | CCCC[C@H](NC(=O)[C@H](Cc1cccc2ccccc12)NC(=O)OCc1ccccc1)C(=O)N[C@@H](CC(C)C)[C@@H](O)/C=C(/CC)C(=O)NCC(C)C [Compound C, (4S,5S)-5-(L-N-benzyloxycarbonylnaphthylalanyl-L-norleucyl)amino-2-ethyl-4-hydroxy-7-methyl-2(Z)-octenoic acid isobutylamide]
0.12 | CCCC[C@H](NC(=O)[C@H](Cc1cccc2ccccc12)NC(=O)OCc1ccccc1)C(=O)N[C@@H](CC(C)C)[C@@H](O)/C=C(\CCC)C(=O)NCC(C)C [Compound D, (4S,5S)-5-(L-N-benzyloxycarbonylnaphthylalanyl-L-norleucyl)amino-4-hydroxy-2-propyl-7-methyl-2(E)-octenoic acid isobutylamide]
0.31 | CCCC[C@H](NC(=O)[C@H](Cc1cccc2ccccc12)NC(=O)OCc1ccccc1)C(=O)N[C@@H](CC(C)C)[C@@H](O)/C=C(/CCC)C(=O)NCC(C)C [Compound E, (4S,5S)-5-(L-N-benzyloxycarbonylnaphthylalanyl-L-norleucyl)amino-4-hydroxy-2-propyl-7-methyl-2(Z)-octenoic acid isobutylamide]
0.15 | CCCC[C@H](NC(=O)[C@H](Cc1cccc2ccccc12)NC(=O)OCc1ccccc1)C(=O)N[C@@H](CC(C)C)[C@@H](O)/C=C(/C(=O)NCC(C)C)C(C)C [Compound F, (4S,5S)-5-(L-N-benzyloxycarbonylnaphthylalanyl-L-norleucyl)amino-4-hydroxy-2-isopropyl-7-methyl-2(E)-octenoic acid isobutylamide]
0.26 | CCCC[C@H](NC(=O)[C@H](Cc1cccc2ccccc12)NC(=O)OCc1ccccc1)C(=O)N[C@@H](CC(C)C)[C@@H](O)/C=C(\C(=O)NCC(C)C)C(C)C [Compound G, (4S,5S)-5-(L-N-benzyloxycarbonylnaphthylalanyl-L-norleucyl)amino-4-hydroxy-2-isopropyl-7-methyl-2(Z)-octenoic acid isobutylamide]
0.16 | CCCC[C@H](NC(=O)[C@H](Cc1cccc2ccccc12)NC(=O)OCc1ccccc1)C(=O)N[C@@H](CC(C)C)[C@@H](O)/C=C(\CCCO)C(=O)NCC(C)C [Compound H, (4S,5S)-5-(L-N-benzyloxycarbonylnaphthylalanyl-L-norleucyl)-amino-4-hydroxy-2-(3-hydroxypropyl)-7-methyl-2(E)-octenoic acid isobutylamide]
